The results in this text go back to patent US20260315464A1, “COMPOSITIONS, METHODS, AND SYSTEMS FOR MODULATING SPLICING OF MSH3” (REVIR THERAPEUTICS, INC., priority 2023, published 2026).

The test system of this test is MSH3. Put plainly: QPCR assay for levels of MSH3 upon compound treatment in HEK293T or AD293 cells (fold-change of MSH3 transcript, EC50 of MSH3 downregulation; total MSH3 exons 13/14, exons 20/21; Table 8). The test is classed as cell-based. As to conditions: for mrna remaining at 1 µM / mrna remaining at 10 µM: Homo sapiens, fold-change of the MSH3 transcript, normalized to GAPDH; for mrna remaining at 1 µM: 1 μM compound; for mrna remaining at 10 µM: 10 μM compound; for EC50: EC50 of MSH3 downregulation, XtalPi. The method, boiled down: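 HEK293T or AD293 cells were treated at 1 μM and […]; RNA-to-cDNA qPCR used TaqMan assays for total MSH3 (exons 13/14, exons 20/21) and poison-exon junctions exon 13/PE14A and exon 20/PE21A. Transcript levels were normalized to GAPDH.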

Take `[2H]C([2H])([2H])n1cc(-c2ccc3c(c2)C(=O)N(c2ccc(N(C)[C@H]4C[C@]5(C)CC[C@](C)(C4)N5)nn2)C3)cn1` [Compound 387, 2-(6-(((1R,3s,5S)-1,5-dimethyl-8-azabicyclo[3.2.1]octan-3-yl)(methyl)amino)pyridazin-3-yl)-6-(1-(methyl-d3)-1H-pyrazol-4-yl)isoindolin-1-one]: the mrna remaining at 1 µM is 96% and the mrna remaining at 10 µM is 63%.

For `Cn1cc(-c2ccc3c(c2)C(=O)N(c2ccc(N4CCN[C@@H](C(C)(C)C)C4)nn2)C3)cn1` [Compound 399, (S)-2-(6-(3-(tert-butyl)piperazin-1-yl)pyridazin-3-yl)-6-(1-methyl-1H-pyrazol-4-yl)isoindolin-1-one], the mrna remaining at 1 µM was 65% and the mrna remaining at 10 µM came out at 43%.

With `Cc1nn(C)cc1-c1ccc2c(c1)C(=O)N(c1ccc(O[C@H]3C[C@]4(C)CC[C@](C)(C3)N4)nn1)C2` [Compound 416, 6-(1,3-dimethyl-1H-pyrazol-4-yl)-2-(6-(((1R,3s,5S)-1,5-dimethyl-8-azabicyclo[3.2.1]octan-3-yl)oxy)pyridazin-3-yl)isoindolin-1-one], the mrna remaining at 1 µM came out at 37%.

In the case of `CN(c1ncc(N2Cc3ccc(-c4cnn(C)n4)cc3C2=O)nn1)C1CC(C)(C)NC(C)(C)C1` [Compound 420, 2-(3-(methyl(2,2,6,6-tetramethylpiperidin-4-yl)amino)-1,2,4-triazin-6-yl)-6-(2-methyl-2H-1,2,3-triazol-4-yl)isoindolin-1-one], the mrna remaining at 1 µM came to 74% and the mrna remaining at 10 µM was determined as 73%.

`Cc1nn(C)cc1-c1ccc2c(c1)C(=O)N(c1ccc(N(C)[C@H]3C[C@]4(C)CC[C@](C)(C3)N4)nn1)C2` [Compound 423, 6-(1,3-dimethyl-1H-pyrazol-4-yl)-2-(6-(((1R,3s,5S)-1,5-dimethyl-8-azabicyclo[3.2.1]octan-3-yl)(methyl)amino)pyridazin-3-yl)isoindolin-1-one]: the mrna remaining at 1 µM was determined as 37% and the mrna remaining at 10 µM turned out to be 10%.

`Cn1ncc(-c2ccc3c(c2)C(=O)N(c2ccc(O[C@H]4C[C@]5(C)CC[C@](C)(C4)N5)nn2)C3)n1` [Compound 425, 2-(6-(((1R,3s,5S)-1,5-dimethyl-8-azabicyclo[3.2.1]octan-3-yl)oxy)pyridazin-3-yl)-6-(2-methyl-2H-1,2,3-triazol-4-yl)isoindolin-1-one]: the mrna remaining at 1 µM is 82% and the mrna remaining at 10 µM was determined as 70%.

For `CN(c1ncc(N2Cc3ccc(-c4cnn(C)n4)cc3C2=O)nn1)[C@H]1C[C@]2(C)CC[C@](C)(C1)N2` [Compound 429, 2-(3-(((1R,3s,5S)-1,5-dimethyl-8-azabicyclo[3.2.1]octan-3-yl)(methyl)amino)-1,2,4-triazin-6-yl)-6-(2-methyl-2H-1,2,3-triazol-4-yl)isoindolin-1-one], the mrna remaining at 1 µM came to 102% and the mrna remaining at 10 µM was found to be 52%.

In the case of `Cc1nn(C)cc1-c1ccc2c(c1)C(=O)N(c1ccc(OC3CC(C)(C)NC4(CC4)C3)nn1)C2` (stereo not drawn) [Compound 438, 6-(1,3-dimethyl-1H-pyrazol-4-yl)-2-(6-((5,5-dimethyl-4-azaspiro[2.5]octan-7-yl)oxy)pyridazin-3-yl)isoindolin-1-one], the mrna remaining at 1 µM worked out at 109% and the mrna remaining at 10 µM stood at 81%.

`Cc1nn(C)nc1-c1ccc2c(c1)C(=O)N(c1ccc(O[C@H]3C[C@]4(C)CC[C@](C)(C3)N4)nn1)C2` [Compound 439, 6-(2,5-dimethyl-2H-1,2,3-triazol-4-yl)-2-(6-(((1R,3s,5S)-1,5-dimethyl-8-azabicyclo[3.2.1]octan-3-yl)oxy)pyridazin-3-yl)isoindolin-1-one]: the mrna remaining at 1 µM worked out at 87% and the mrna remaining at 10 µM was 72%.

On to `Cc1nn(C)cc1-c1cc(Cl)c2c(c1)C(=O)N(c1ccc(O[C@H]3C[C@]4(C)CC[C@](C)(C3)N4)nn1)C2` [Compound 447, 4-chloro-6-(1,3-dimethyl-1H-pyrazol-4-yl)-2-(6-(((1R,3s,5S)-1,5-dimethyl-8-azabicyclo[3.2.1]octan-3-yl)oxy)pyridazin-3-yl)isoindolin-1-one], for which the mrna remaining at 1 µM is 94%.

`Cc1nn(C)cc1-c1cc2c(cn1)CN(c1ccc(OC3CCC(C)(C)NC(C)(C)C3)nn1)C2=O` (stereo not drawn) [Compound 457, 6-(1,3-dimethyl-1H-pyrazol-4-yl)-2-(6-((2,2,7,7-tetramethylazepan-4-yl)oxy)pyridazin-3-yl)-2,3-dihydro-1H-pyrrolo[3,4-c]pyridin-1-one]: the mrna remaining at 1 µM was determined as 85% and the mrna remaining at 10 µM worked out at 70%.

One may read the EC50 as the midpoint of the concentration-response curve. Consider `Cn1cc(-c2cc3c(cn2)CN(c2ccc(O[C@H]4C[C@]5(C)CC[C@](C)(C4)N5)nn2)C3=O)c(Cl)n1` [Compound 458, 6-(3-chloro-1-methyl-1H-pyrazol-4-yl)-2-(6-(((1R,3s,5S)-1,5-dimethyl-8-azabicyclo[3.2.1]octan-3-yl)oxy)pyridazin-3-yl)-2,3-dihydro-1H-pyrrolo[3,4-c]pyridin-1-one], for which the EC50 is 820 nM, the mrna remaining at 1 µM was found to be 40% and the mrna remaining at 10 µM worked out at 11%.

Turning to `Cn1nc(Cl)c(-c2cc3c(cn2)CN(c2ccc(O[C@H]4C[C@]5(C)CC[C@](C)(C4)N5)nn2)C3=O)n1` [Compound 460, 6-(5-chloro-2-methyl-2H-1,2,3-triazol-4-yl)-2-(6-(((1R,3s,5S)-1,5-dimethyl-8-azabicyclo[3.2.1]octan-3-yl)oxy)pyridazin-3-yl)-2,3-dihydro-1H-pyrrolo[3,4-c]pyridin-1-one], the mrna remaining at 1 µM came out at 80% and the mrna remaining at 10 µM was 25%.

On to `Cn1ncc(-c2cc3c(cn2)CN(c2ccc(OC4CCC(C)(C)NC(C)(C)C4)nn2)C3=O)n1` (stereo not drawn) [Compound 465, 6-(2-methyl-2H-1,2,3-triazol-4-yl)-2-(6-((2,2,7,7-tetramethylazepan-4-yl)oxy)pyridazin-3-yl)-2,3-dihydro-1H-pyrrolo[3,4-c]pyridin-1-one], for which the mrna remaining at 1 µM came to 93% and the mrna remaining at 10 µM was determined as 115%.

Turning to `Cc1nn(C)cc1-c1cnc2c(c1)C(=O)N(c1ccc(OC3CCC(C)(C)NC(C)(C)C3)nn1)C2` (stereo not drawn) [Compound 479, 3-(1,3-dimethyl-1H-pyrazol-4-yl)-6-(6-((2,2,7,7-tetramethylazepan-4-yl)oxy)pyridazin-3-yl)-6,7-dihydro-5H-pyrrolo[3,4-b]pyridin-5-one], the mrna remaining at 1 µM stood at 119% and the mrna remaining at 10 µM was 56%.

Turning to `Cn1nc(Cl)c(-c2cnc3c(c2)C(=O)N(c2ccc(O[C@H]4C[C@]5(C)CC[C@](C)(C4)N5)nn2)C3)n1` [Compound 480, 3-(5-chloro-2-methyl-2H-1,2,3-triazol-4-yl)-6-(6-(((1R,3s,5S)-1,5-dimethyl-8-azabicyclo[3.2.1]octan-3-yl)oxy)pyridazin-3-yl)-6,7-dihydro-5H-pyrrolo[3,4-b]pyridin-5-one], the EC50 is 363 nM, the mrna remaining at 1 µM was 15% and the mrna remaining at 10 µM is 10%.

On to `Cn1ncc(-c2cnc3c(c2)C(=O)N(c2ccc(OC4CCC(C)(C)NC(C)(C)C4)nn2)C3)n1` (stereo not drawn) [Compound 485, 3-(2-methyl-2H-1,2,3-triazol-4-yl)-6-(6-((2,2,7,7-tetramethylazepan-4-yl)oxy)pyridazin-3-yl)-6,7-dihydro-5H-pyrrolo[3,4-b]pyridin-5-one], for which the mrna remaining at 1 µM was 88% and the mrna remaining at 10 µM was 40%.

`Cc1nn(C)cc1-c1cnc2c(c1)C(=O)N(c1ccc(N(C3CC3)C3CC(C)(C)NC(C)(C)C3)nn1)C2` [Compound 487, 6-(6-(cyclopropyl(2,2,6,6-tetramethylpiperidin-4-yl)amino)pyridazin-3-yl)-3-(1,3-dimethyl-1H-pyrazol-4-yl)-6,7-dihydro-5H-pyrrolo[3,4-b]pyridin-5-one]: the mrna remaining at 1 µM amounted to 133% and the mrna remaining at 10 µM worked out at 31%.

On to `Cn1nc(Cl)c(-c2cnc3c(c2)C(=O)N(c2ccc(OC4CCC(C)(C)NC(C)(C)C4)nn2)C3)n1` (stereo not drawn) [Compound 488, 3-(5-chloro-2-methyl-2H-1,2,3-triazol-4-yl)-6-(6-((2,2,7,7-tetramethylazepan-4-yl)oxy)pyridazin-3-yl)-6,7-dihydro-5H-pyrrolo[3,4-b]pyridin-5-one], for which the mrna remaining at 1 µM was found to be 69% and the mrna remaining at 10 µM is 19%.

Regarding `Cc1nn(C)cc1-c1cnc2c(c1)C(=O)N(c1ccc(S[C@H]3C[C@]4(C)CC[C@](C)(C3)N4)nn1)C2` [Compound 490, 3-(1,3-dimethyl-1H-pyrazol-4-yl)-6-(6-(((1R,3s,5S)-1,5-dimethyl-8-azabicyclo[3.2.1]octan-3-yl)thio)pyridazin-3-yl)-6,7-dihydro-5H-pyrrolo[3,4-b]pyridin-5-one], the mrna remaining at 1 µM was 90% and the mrna remaining at 10 µM was determined as 25%.

For `Cn1nc(Cl)c(-c2cnc3c(c2)C(=O)N(c2ccc(OC4CC(C)(C)NC(C)(C)C4)nn2)C3)n1` [Compound 493, 3-(5-chloro-2-methyl-2H-1,2,3-triazol-4-yl)-6-(6-((2,2,6,6-tetramethylpiperidin-4-yl)oxy)pyridazin-3-yl)-6,7-dihydro-5H-pyrrolo[3,4-b]pyridin-5-one], the mrna remaining at 1 µM came out at 57% and the mrna remaining at 10 µM worked out at 13%.

The compound `Cc1nn(C)cc1-c1cnc2c(n1)C(=O)N(c1ccc(N(C)[C@H]3C[C@]4(C)CC[C@](C)(C3)N4)nn1)C2` [Compound 496, 3-(1,3-dimethyl-1H-pyrazol-4-yl)-6-(6-(((1R,3s,5S)-1,5-dimethyl-8-azabicyclo[3.2.1]octan-3-yl)(methyl)amino)pyridazin-3-yl)-6,7-dihydro-5H-pyrrolo[3,4-b]pyrazin-5-one] registered an EC50 of 690 nM.

Consider `Cn1ncc(-c2cnc3c(n2)C(=O)N(c2ccc(O[C@H]4C[C@]5(C)CC[C@](C)(C4)N5)nn2)C3)n1` [Compound 498, 6-(6-(((1R,3s,5S)-1,5-dimethyl-8-azabicyclo[3.2.1]octan-3-yl)oxy)pyridazin-3-yl)-3-(2-methyl-2H-1,2,3-triazol-4-yl)-6,7-dihydro-5H-pyrrolo[3,4-b]pyrazin-5-one], for which the mrna remaining at 1 µM worked out at 67% and the mrna remaining at 10 µM stood at 52%.
